Patent US20200181212A1 (priority 2014, published 2020)

Experiment: physchem
Settings: cells or culture medium

## CC(C)C[C@@H]1NC(=O)[C@H](CO)NC(=O)[C@@H]2CSSC[C@@H]3NC(=O)[C@H]([C@@H](C)O)NC(=O)[C@H](C)NC(=O)[C@H](CC(=O)O)NC(=O)[C@H](CC(=O)O)NC(=O)[C@H](CSSC[C@H](NC(=O)[C@H](Cc4ccc(O)cc4)NC(=O)[C@@H](N)CCC(N)=O)C(=O)N[C@@H](C(C)C)C(=O)N4CCC[C@H]4C(=O)N[C@@H](C(C)C)C(=O)N[C@@H](CC(=O)O)C(=O)N[C@@H](CCC(N)=O)C(=O)N4CCC[C@H]4C(=O)N2)NC(=O)[C@H](CSSC[C@@H](C(=O)N[C@@H](CCCNC(=N)N)C(=O)N[C@@H](C)C(=O)O)NC(=O)[C@H](Cc2ccc(O)cc2)NC(=O)[C@H](Cc2ccc(O)cc2)NC(=O)[C@H](C(C)C)NC(=O)[C@H]([C@@H](C)O)NC(=O)[C@H](Cc2c[nH]cn2)NC(=O)CNC(=O)[C@H](CC(N)=O)NC(=O)[C@H](CCC(=O)O)NC(=O)[C@H](CC(N)=O)NC(=O)[C@H](CCCNC(=N)N)NC(=O)[C@H](CCC(=O)O)NC(=O)[C@H](CCC(N)=O)NC(=O)[C@H]([C@@H](C)O)NC3=O)NC(=O)[C@@H]2CCCN2C(=O)[C@H](CCC(N)=O)NC(=O)[C@H]([C@@H](C)O)NC(=O)[C@H](CC(N)=O)NC1=O (single isomer, unassigned) [Peak 1]
  remaining at 24 h: 5.6%
